The values below come from publication PMC4867112 (Biochemistry, 2016).

Data set [1] has as its target T1, DREAM(Δ64) (Mus musculus, UniProt Q9QXT8).
T1 sequence (Q9QXT8 65-256): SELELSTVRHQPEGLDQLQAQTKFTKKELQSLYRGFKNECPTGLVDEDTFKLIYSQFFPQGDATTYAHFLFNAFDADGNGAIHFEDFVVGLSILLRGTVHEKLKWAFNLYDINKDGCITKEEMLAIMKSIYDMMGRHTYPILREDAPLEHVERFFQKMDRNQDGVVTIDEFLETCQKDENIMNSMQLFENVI
The experiment in a line: Tb3+ luminescence decay titration. It counts as binding.

Data set [2] concerns the molecule itself. The experiment in a line: fluorescence anisotropy decay. (Fluorescence polarisation rises when a labelled molecule tumbles more slowly, as on binding a larger partner.)

On to `O=C(Nc1cc(C(F)(F)F)cc(C(F)(F)F)c1)Nc1c(Br)cc(Br)cc1-c1nn[nH]n1` [NS5806, 1-[2,4-dibromo-6-(1H-tetrazol-5-yl)-phenyl]-3-(3,5-bis-trifluoromethyl-phenyl)urea], for which, in data set [1], the equilibrium dissociation constant (Kd) (commonly the concentration at which binding is half-saturated) is about 37 µM.

B1: DREAM(Δ64), mouse DREAM (downstream regulatory element antagonist modulator) construct lacking residues 1–64 (domain or fragment, UniProt Q9QXT8 65-256, looked up)
chain: T1 sequence (Q9QXT8 65-256)
With B1, in data set [2], the stoichiometry N (commonly the number of molecules, sites or subunits per partner or assembly) was 2.
